Measurements published in publication PMC6562844, “A Basic Study of Photodynamic Therapy with Glucose-Conjugated Chlorin e6 Using Mammary Carcinoma Xenografts” (Cancers, 2019).

Tests used:
SNP cells [1] = test: Kinetics experiment to assess apoptosis (IncuCyte Annexin V live-cell analysis); format: cell-based, canine; conditions: 5 J/cm^2
Experimental: SNP cells were seeded at a density of (1–2) × 10^4 cells/well in 96-well plates and incubated for 24 h. The cells were then incubated with various concentrations of G-Ce6 (0, 0.064, 0.32, 1.6, or 8.0 μg/mL) for 24 h at 37 °C. After washing with fresh media, the cells were irradiated with 650-nm laser light (10 mW/cm^2, 5 J/cm^2) emitted by a semiconductor laser, using an optical fiber with a microlens delivery attachment. The cells were then stained with IncuCyte® Annexin V (Essen BioScience Inc., Ann Arbor, MI, USA) immediately following PDT, and incubated in a 5% CO2 atmosphere at 37 °C for 24 h. Images were automatically captured every 1 h for 24 h in phase-contrast and fluorescence modes using the IncuCyte® S3 system; phase contrast and green-phase images were obtained from the system. The total green object integrated intensity (green calibrated unit (GCU) × μm²/image) in an image was determined by object counting with IncuCyte® S3 Software according to the manufacturer’s protocol. In the present study, object counting is defined as the total sum of the intensity of Annexin V Green fluorescence in the image.

SNP cells [2] = test: Analysis of apoptosis (Muse Annexin V and Dead Cell Assay kit); format: cell-based, canine; conditions: 8 μg/mL; 1, 5, or 15 J/cm^2; 4 h after PDT; p < 0.01
Experimental: (§1) SNP cells were seeded at a density of 5 × 10^4 cells/well in 35-mm petri dishes containing 2 mL culture medium. Following 24 h of incubation, the cells were divided into the following groups: control (no treatment); laser (irradiated with a light dose of 15 J/cm^2); G-Ce6 (treated with 8 μg/mL G-Ce6); and PDT (treated with 8 μg/mL G-Ce6, and then irradiated with a light dose of 1, 5, or 15 J/cm^2).
The cells were incubated with 8 μg/mL G-Ce6 for 24 h. After washing with fresh media, the cells were irradiated with 650-nm laser light (10 mW/cm^2; 1, 5, and 15 J/cm^2) emitted by a semiconductor laser, using an optical fiber with a microlens delivery attachment. Apoptosis was assessed 4 h after laser irradiation using the Muse Annexin V and Dead Cell Assay kit (EMD Millipore Co., Billerica, MA, USA), according to the manufacturer’s protocols. Annexin V was used to detect phosphatidylserine on the external membrane of apoptotic cells.
(§2) Single-cell suspensions were then loaded onto the Muse Cell Analyzer (EMD Millipore Co.).

SNP cells [3] = test: Reactive oxygen species assay (Muse Oxidative Stress kit); format: cell-based, canine; conditions: 8 μg/mL, 4 h after PDT
Experimental: as §1
Reactive oxygen species (ROS) generation was assessed 4 h after laser irradiation using the Muse Oxidative Stress kit (EMD Millipore Co.), according to the manufacturer’s protocols; this kit determines the percentage of cells that are negative (healthy cells) and positive for ROS (cells containing ROS).
as §2

SNP tumors [4] = test: Intratumoral localization in SNP tumors; format: in vivo, NOD/ShiJic-scidJcl mice; conditions: 10 mg/kg i.v.
Experimental: (§3) Six-week-old female NOD/ShiJic-scidJcl mice (CLEA Japan, Tokyo, Japan) were maintained in isolators under specific pathogen-free conditions. All SCID mice were housed and handled under clean conditions using a Jic rack (Jic Co., Kanagawa, Japan), sterilized water, cages, beddings, and food (CL-2; CLEA Japan, Tokyo, Japan). Food and water were given ad libitum. SNP cells were inoculated subcutaneously in the shaved lower dorsum of mice at a density of 1 × 10^6 cells in 0.1 mL phosphate buffered salts (Nacalai Tesque Inc., Kyoto, Japan) per mouse using a 26-gauge syringe. The treatments were initiated when the average tumor volume reached about 100 mm^3 in tumor model. The use of animals and the procedures employed in this study were approved by the Animal Research Committee of Tottori University (project number: 15-T-48).
To determine the intratumoral localization of G-Ce6, tumors were excised either 5 min or 3 h after G-Ce6 (10 mg/kg, i.v.) administration. Samples were immediately mounted in Tissue-Tek® O.C.T. compound (Sakura® Finetek., Tokyo, Japan) and snap-frozen in dry ice with acetone. Cryostat cross sections (10-μm slices) were taken from the center of each tumor. Each section was examined using the all-in-one fluorescence microscope with a filter (excitation, 405 nm; emission, 640 nm).

SNP tumors [5] = test: Tumor response to PDT in SNP tumor-bearing mice; format: in vivo, NOD/ShiJic-scidJcl mice; conditions: 10 mg/kg i.v.; for Tumor regrowth delay vs control group: 677-nm, 100 J/cm^2, p < 0.05
Experimental: as §3
We examined the following two experimental groups: (i) a 3-h-interval PDT group (G-Ce6 administered 3 h before laser irradiation) and (ii) a 5-min-interval PDT group (G-Ce6 administered 5 min before laser irradiation). Tumor-bearing mice were intravenously administered approximately 0.1 mL of G-Ce6 stock solution to achieve a dose of 10 mg/kg body weight; they were irradiated with 677-nm laser light emitted by a diode laser (Osada Electric Co., Ltd., Tokyo, Japan). Light was delivered to the mice through a quartz fiber fitted with a microlens and expanded onto the tumor at a 2–4 mm skin margin. The tumors were exposed at a fluence rate of 250 mW/cm^2, at a light dose of 100 J/cm^2.
The resulting treatment effect was assayed by changes in tumor volume. The tumor size was regularly measured after PDT using a caliper. Tumor volume was calculated using the following formula: tumor volume (V) = (a × b × c) × π/6, where a, b, and c are three orthogonal diameters of the tumor. The experiment was terminated on day 25. All mice were sacrificed via cervical dislocation, and the tumors were harvested.

SNP tumors [6] = test: Histological examination of SNP tumors after PDT (H&E); format: in vivo, NOD/ShiJic-scidJcl mice
Experimental: To examine PDT-induced histological changes in the tumor tissue and surrounding normal tissue, animals were sacrificed via cervical dislocation, and the tumors were harvested at 24 h after PDT. The tumor tissues were fixed in 10% buffered formalin and embedded in paraffin. Tumor sections were cut at a thickness of 4 μm, stained with hematoxylin & eosin (H&E), and examined under a light microscope (Olympus BX51).

[7] = tested on: murine colon cancer cells; set-up: method as in PMID 29408755; conditions: light dose of 16 J/cm^2; read-out: IC50 against murine colon cancer cells; cited from earlier work

CCC1=C(C)c2cc3[nH]c(cc4nc(c(CC(=O)OC)c5[nH]c(cc1n2)c(C)c5C(=O)OC)[C@@H](CCC(=O)OC)[C@@H]4C)c(C)c3C(C)OCCCS[C@@H]1O[C@H](CO)[C@@H](O)[C@H](O)[C@H]1O (stereo partly drawn) [G-Ce6, Methyl (7S,8S)-18-ethyl-5-(2-methoxy-2-oxoethyl)-7-(3-methoxy-3-oxopropyl)-2,8,12,17-tetramethyl-13-(1-(3-(((2S,3R,4S,5S,6R)-3,4,5-trihydroxy-6-(hydroxymethyl)tetrahydro-2H-pyran-2-yl)thio)propoxy)ethyl)-7H,8H-porphyrin-3-carboxylate]
Time after PDT at which GCU began to increase (SNP cells [1]; 0.32 μg/mL): 1 to 3 h | Time after PDT at which GCU reached a maximum (SNP cells [1]; 0.32 μg/mL): 10 h | Time after PDT at which apoptosis (GCU) reached a plateau (SNP cells [1]; 8 μg/mL): approximately 4 h | Total green object integrated intensity (GCU × μm²/image) after PDT (SNP cells [1]; <0.064 μg/mL): did not increase | Apoptotic rates compared with control group (SNP cells [2]): significantly higher | Percentage of ROS (+) cells compared with control group (SNP cells [3]; 5 J/cm^2, p < 0.01): significantly higher | Percentage of ROS (+) cells (SNP cells [3]; 15 J/cm^2): remarkably decreased | Intratumoral localization of fluorescence (SNP tumors [4]; 5 min after administration): within the tumor blood vessel | Intratumoral localization of fluorescence (SNP tumors [4]; 3 h post administration): in both tumor interstitial tissue and tumor cells | Mean tumor weight on day 25 (SNP tumors [5]; 3-h-interval PDT): 210.3 ± 85.0 mg | Tumor regrowth delay vs control group (SNP tumors [5]; 3-h-interval PDT): significant tumor regrowth delay | Mean tumor weight on day 25 (SNP tumors [5]; 5-min-interval PDT): 34.0 ± 12.7 mg | Tumor regrowth delay vs control group (SNP tumors [5]; 5-min-interval PDT): significant tumor regrowth delay | Histological findings 24 h after PDT (SNP tumors [6]; 3-h-interval PDT): cells at the superficial tumor tissue appeared necrotic, whereas deep-seated tumor cells appeared intact | Histological findings 24 h after PDT (SNP tumors [6]; 5-min-interval PDT): widespread tumor cells appeared necrotic | IC50 [7]: 1.35 nM
